Laboratory results from patent publication US8906825B2, “Herbicidal compositions comprising 4-amino-3-chloro-5-fluoro-6-(4-chloro-2-fluoro-3-methoxyphenyl) pyridine-2-carboxylic acid or a derivative thereof and triazolopyrimidine sulfonamides” (Dow AgroSciences LLC, priority 2012, dated 2014).

Assays:
Format in all cases: in vivo
[1] = system: SCPJU (Schoenoplectus juncoides Roxb., Japanese bulrush); assay: Water-injected field trial in transplanted rice, Japan (Example IV)
Method: (§1) Multiple post-emergence field trials were conducted under field conditions in Tolima, Colombia; Thessaloniki, Greece; Ottobiano and Copiano, Italy; Greenville, Miss. and Eagle Lake, Tex., USA; and water-injected treatments were tested at Ryugasaki, Japan. Trial sites were located in commercially grown fields of direct-seeded rice (Oryza sativa) using standard herbicide small plot research methodology, except in Japan where transplanted rice was utilized for the field trial. Post-emergence trial plot size varied from 2 to 3 meter (m)×5 to 8 m (width×length) with 4 replicates per treatment. Water-injected trial plot size was 2×2 m with 3 replicates per treatment. The rice crop was grown using normal cultural practices for fertilization, seeding, watering, flooding and maintenance to ensure good growth of the crop and the weeds.
(§2) All treatments in the post-emergence field trials were applied using a backpack compressed air/gas sprayer with flat fan nozzles (80° or 110°) calibrated to apply 187 to 300 L/ha spray volume at approximately 200-400 kPa nozzle pressure. In Japan, treatments were water-injected applied where the specified amount of commercial product was mixed in 100 mls of water per replicate and applied directly into 3 cm deep water containing the crop and weeds. Treatments consisted of the benzyl ester of 4-amino-3-chloro-5-fluoro-6-(4-chloro-2-fluoro-3-methoxy-phenyl)pyridine-2-carboxylic acid (Compound A), formulated as an SC (suspension concentrate), and various herbicidal components alone and in combination.
Commercially available products of penoxsulam (Viper 20OD® (Europe), Grasp 240SC® (USA), and Wideattack 37.5SC® (Japan)) were mixed in water at appropriate formulated product rates to achieve the desired rates based on a unit area of application (hectare) to achieve the desired rates as shown. Treatments were rated at 15 to 56 days after application (DAA) as compared to the untreated control plants. Visual weed control was scored on a scale of 0 to 100 percent where 0 corresponds to no injury and 100 corresponds to complete kill. […]

[2] = system: LEFCH (Leptochloa chinensis (L.) Nees, Chinese sprangletop); assay: Postemergence foliar-applied herbicidal mixtures, direct seeded rice, greenhouse (Example I)
Source text: (§3) Seeds or nutlets of the desired test plant species were planted in a soil matrix prepared by mixing a loam or sandy loam soil (e.g., 28.6 percent silt, 18.8 percent clay, and 52.6 percent sand, with a pH of about 5.8 and an organic matter content of about 1.8 percent) and calcareous grit in an 80 to 20 ratio. The soil matrix was contained in plastic pots with a volume of 1 quart and a surface area of 83.6 square centimeters (cm^2). When required to ensure good germination and healthy plants, a fungicide treatment and/or other chemical or physical treatment was applied. The plants were grown for 8-22 days in a greenhouse with an approximate 14 h photoperiod which was maintained at about 29° C. during the day and about 26° C. during the night. Nutrients (Peters Excel® 15-5-15 5-Ca 2-Mg and iron chelate) were applied in the irrigation solution as needed and water was added on a regular basis. Supplemental lighting was provided with overhead metal halide 1000-Watt lamps as necessary. The plants were employed for testing when they reached the first through fourth true leaf stage.
(§4) Treatments consisted of the acid or esters of 4-amino-3-chloro-5-fluoro-6-(4-chloro-2-fluoro-3-methoxy-phenyl)pyridine-2-carboxylic acid (Compound A), each formulated as an SC (suspension concentrate), and various herbicidal components alone and in combination. Forms of compound A were applied on an acid equivalent basis.
(§5) Other herbicidal components were applied on an active ingredient basis and included acetolactate synthase (ALS)-inhibiting herbicides (sulfonamide chemical class) penoxsulam formulated as Grasp® SC, diclosulam formulated as Strongarm®, and cloransulam-methyl formulated as FirstRate®, flumetsulam formulated as Flumetsulam WG, and metosulam formulated as Eclipse®.
(§6) Treatment requirements were calculated based upon the rates being tested, the concentration of active ingredient or acid equivalent in the formulation, and a 12 mL application volume at a rate of 187 L/ha.
(§7) For treatments comprised of formulated compounds, measured amounts of compounds were placed individually in 25 mL glass vials and diluted in a volume of 1.25% (v/v) Agri-Dex® crop oil concentrated to obtain 12× stock solutions. […] Application solutions were prepared by adding an appropriate amount of each stock solution (e.g., 1 mL) and diluted to the appropriate final concentrations with the addition of 10 mL of an aqueous mixture of 1.25% (v/v) crop oil concentrate so that the final spray solutions contained 1.25+/−0.05% (v/v) crop oil concentrate.
(§8) All stock solutions and applications solutions were visually inspected for compound compatibility prior to application. Spray solutions were applied to the plant material with an overhead Mandel track sprayer equipped with an 8002E nozzle calibrated to deliver 187 L/ha over an application area of 0.503 m^2 at a spray height of 18 to 20 inches (46 to 50 cm) above average plant canopy height. Control plants were sprayed in the same manner with the solvent blank.
(§9) The treated plants and control plants were placed in a greenhouse as described above and watered by sub-irrigation to prevent wash-off of the test compounds. After approximately 3 weeks, the condition of the test plants as compared with that of the untreated plants was determined visually and scored on a scale of 0 to 100 percent where 0 corresponds to no injury or growth inhibition and 100 corresponds to complete kill.
(§10) Colby's equation was used to determine the herbicidal effects expected from the mixtures (Colby, S. R. 1967. Calculation of the synergistic and antagonistic response of herbicide combinations. Weeds 15:20-22.).
(§11) The following equation was used to calculate the expected activity of mixtures containing two active ingredients, A and B: Expected=A+B−(A×B/100)

[3] = system: BRAPP (Brachiaria platyphylla (Griseb.) Nash, broadleaf signalgrass); assay: as above
Source text: as §3, §4, §5, §6, §7, §8, §9, §10, §11

[4] = system: ECHSS (Echinochloa spp.); assay: Postemergence field trials in direct-seeded rice, Greece and Italy (Example IV); settings: foliar
Method: as §1, §2
(§12) Commercially available products of penoxsulam (Viper 20OD® (Europe), Grasp 240SC® (USA), and Wideattack 37.5SC® (Japan)) were mixed in water at appropriate formulated product rates to achieve the desired rates based on a unit area of application (hectare) to achieve the desired rates as shown. Treatments were rated at 15 to 56 days after application (DAA) as compared to the untreated control plants. Visual weed control was scored on a scale of 0 to 100 percent where 0 corresponds to no injury and 100 corresponds to complete kill.
(§13) All treatment results, both for the single product and mixtures, are an average of 3 to 4 replicates. The trial sites had naturally occurring populations of weeds. The weed spectrum included, but was not limited to, broadleaf signalgrass (Brachiaria platyphylla (Griseb.) Nash or Urochloa platyphylla (Nash) R.D. Webster, BRAPP), smallflower umbrellaplant (Cyperus difformis L., CYPDI), yellow nutsedge (Cyperus esculentus L., CYPES), multiple Echinochloa species in the same field (ECHSS) in Italy (mixed ECHSS biotypes), Amazon sprangletop (Leptochloa panicoides (J. Presl) A.S. Hitchc., LEFPA), and Japanese bulrush (Schoenoplectus juncoides (Roxb.) Palla, SCPJU).

[5] = system: CYPDI (Cyperus difformis L., smallflower umbrella sedge); assay: as above; settings: foliar
Method: as §1, §2, §12, §13

[6] = system: CYPES (Cyperus esculentus L., yellow nutsedge); assay: as above; settings: foliar
Method: as §1, §2, §12, §13

[7] = Compound A Benzyl Ester 8 gae/ha
[8] = Compound A Benzyl Ester 16 gae/ha
[9] = Compound A Benzyl Ester 17.5 gae/ha
[10] = Compound A Benzyl Ester 32 gae/ha
[11] = Compound A Benzyl Ester 24 gae/ha

SMILES: COc1c(Cl)ccc(-c2nc(C(=O)OCc3ccccc3)c(Cl)c(N)c2F)c1F [Compound A Benzyl Ester, benzyl ester of 4-amino-3-chloro-5-fluoro-6-(4-chloro-2-fluoro-3-methoxy-phenyl)pyridine-2-carboxylic acid]
- Visual Weed Control (%) - 28 DAA SCPJU Obs ([1]; Compound A Benzyl Ester 150 gae/ha): 22%
- Visual Weed Control (%) - 28 DAA SCPJU Obs ([1]; Compound A Benzyl Ester 200 gae/ha): 25%
- Visual Weed Control (%) - 20 DAA LEFCH Obs ([2]; Compound A Benzyl Ester 4.38 gae/ha): 10%
- Visual Weed Control (%) - 22 DAA LEFCH Obs [2, 7]: 10%
- Visual Weed Control (%) - 20 DAA LEFCH Obs ([2]; Compound A Benzyl Ester 8.75 gae/ha): 20%
- Visual Weed Control (%) - 22 DAA LEFCH Obs [2, 8]: 25%
- Visual Weed Control (%) - 20 DAA LEFCH Obs [2, 9]: 60%
- Visual Weed Control (%) - 22 DAA LEFCH Obs [2, 10]: 55%
- Visual Weed Control (%) - 22 DAA BRAPP Obs [3, 7]: 60%
- Visual Weed Control (%) - 22 DAA BRAPP Obs [3, 8]: 60%
- Visual Weed Control (%) - 21 DAA BRAPP Obs [3, 9]: 80%
- Visual Weed Control (%) - 22 DAA BRAPP Obs [3, 10]: 90%
- Visual Weed Control (%) - 54-56 DAA ECHSS Obs [4, 11]: 40%
- Visual Weed Control (%) - 54-56 DAA CYPDI Obs [5, 11]: 81%
- Visual Weed Control (%) - 54-56 DAA CYPES Obs [6, 11]: 15%

SMILES: COc1cnc(OC)n2nc(NS(=O)(=O)c3c(OCC(F)F)cccc3C(F)(F)F)nc12 [Penoxsulam, 2-(2,2-difluoroethoxy)-N-(5,8-dimethoxy[1,2,4]triazolo[1,5-c]pyrimidin-2-yl)-6-(trifluoromethyl)benzenesulfonamide, reference compound]
- Visual Weed Control (%) - 28 DAA SCPJU Obs ([1]; Penoxsulam 50 gai/ha): 20%
- Visual Weed Control (%) - 19 DAA LEFCH Obs ([2]; Penoxsulam 40 gai/ha): 0%
- Visual Weed Control (%) - 21 DAA BRAPP Obs ([3]; Penoxsulam 4.38 gai/ha, Table 2): 0%
- Visual Weed Control (%) - 21 DAA BRAPP Obs ([3]; Penoxsulam 4.38 gai/ha, Table 3): 0%
- Visual Weed Control (%) - 21 DAA BRAPP Obs ([3]; Penoxsulam 8.75 gai/ha, Table 2): 20%
- Visual Weed Control (%) - 21 DAA BRAPP Obs ([3]; Penoxsulam 8.75 gai/ha, Table 3): 20%
- Visual Weed Control (%) - 21 DAA BRAPP Obs ([3]; Penoxsulam 17.5 gai/ha, Table 3): 40%
- Visual Weed Control (%) - 54-56 DAA ECHSS Obs ([4]; Penoxsulam 40 gai/ha): 50%
- Visual Weed Control (%) - 54-56 DAA CYPDI Obs ([5]; Penoxsulam 40 gai/ha): 0%
- Visual Weed Control (%) - 54-56 DAA CYPES Obs ([6]; Penoxsulam 40 gai/ha): 55%
